Usually IC50 stands for the concentration at which inhibition is half-maximal. By viability, T/C is commonly meant the result in the treated group divided by that in the control group, in per cent.

The values below come from PubChem BioAssay AID1963444 (Molecular Pharmacology Branch, DTP, NCI, 2024).

The assay deals with HSSY-II complex spheroid growth, percent test/control. Kind of assay: Anticancer human tumor HSSY-II cell line growth inhibition [Asc].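 On all read-outs here: spheroids exposed to drug for 7 days before reading.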 The note with it: for viability, T/C: stronger effect = lower value. Put shortly:
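Stromal components (HUVEC and hMSC) are co-assembled with the cancer cells into multicellular spheroids. Drugs are then added singly or paired, at concentrations falling by half-log increments from a clinically achievable maximum, capped at 10 microM without known Cmax.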

“And” between values parts separate entries of the source, which are not always exact repeats. Equal values may be shown once.

Consider `CNC(C)C(=O)NC1CN(S(=O)(=O)c2cccc(S(=O)(=O)N3CCC4CCC(C(=O)NC(c5ccccc5)c5ccccc5)N4C(=O)C(NC(=O)C(C)NC)C3)c2)CCC2CCC(C(=O)NC(c3ccccc3)c3ccccc3)N2C1=O` (centres undefined) + CCN1C(C(=O)NC23CCC(C(=O)O)(CC2)CC3)C(c2cccc(Cl)c2F)C2(C(=O)Nc3cc(Cl)ccc32)C12CCCCC2, for which the IC50 reads like this: (curve of first compound, second compound 0.03 µM) more than 1000 nM; (curve of first compound, second compound 0.0949 µM) 3.28 nM; (curve of first compound, second compound 0.3 µM) less than 3.16 nM; (curve of first compound, second compound 0.949 µM) less than 3.16 nM; (curve of first compound, second compound 3 µM) less than 3.16 nM. The viability, T/C is, setting by setting: (second compound 0.03 µM, first compound 0.00316 µM) 76.3%; (second compound 0.03 µM, first compound 0.01 µM) 81.6%; (second compound 0.03 µM, first compound 0.0316 µM) 65.6%; (second compound 0.03 µM, first compound 0.1 µM) 69.1%; (second compound 0.03 µM, first compound 0.316 µM) 66.8%; (second compound 0.03 µM, first compound 1 µM) 63.1%. Also, the viability, T/C is, setting by setting: (second compound 0.0949 µM, first compound 0.00316 µM) 49.2%; (second compound 0.0949 µM, first compound 0.01 µM) 48.4%; (second compound 0.0949 µM, first compound 0.0316 µM) 36.8%; (second compound 0.0949 µM, first compound 0.1 µM) 39.5%; (second compound 0.0949 µM, first compound 0.316 µM) 39.1%; (second compound 0.0949 µM, first compound 1 µM) 37.5%. For the same molecule, the viability, T/C was 13.5% (second compound 0.3 µM, first compound 0.00316 µM); 13.5% (second compound 0.3 µM, first compound 0.01 µM); 13.3% (second compound 0.3 µM, first compound 0.0316 µM); 11% (second compound 0.3 µM, first compound 0.1 µM); 14.3% (second compound 0.3 µM, first compound 0.316 µM); 11.2% (second compound 0.3 µM, first compound 1 µM). Also, the viability, T/C is 2.72% (second compound 0.949 µM, first compound 0.00316 µM); 1.74% (second compound 0.949 µM, first compound 0.01 µM); 1.39% (second compound 0.949 µM, first compound 0.0316 µM); 1.14% (second compound 0.949 µM, first compound 0.1 µM); 0.75% (second compound 0.949 µM, first compound 0.316 µM); 1.15% (second compound 0.949 µM, first compound 1 µM). Moreover, the viability, T/C by setting is: (second compound 3 µM, first compound 0.00316 µM) 0.64%; (second compound 3 µM, first compound 0.01 µM) 0.51%; (second compound 3 µM, first compound 0.0316 µM) 0.48%; (second compound 3 µM, first compound 0.1 µM) 0.47%; (second compound 3 µM, first compound 0.316 µM) 0.62%; (second compound 3 µM, first compound 1 µM) 0.46%.

Take `CNC(C)C(=O)NC1CN(S(=O)(=O)c2cccc(S(=O)(=O)N3CCC4CCC(C(=O)NC(c5ccccc5)c5ccccc5)N4C(=O)C(NC(=O)C(C)NC)C3)c2)CCC2CCC(C(=O)NC(c3ccccc3)c3ccccc3)N2C1=O` (centres undefined) + Cc1c(S(C)(=O)=O)c(-c2cc(F)cc(N3CCN(c4ccc(NS(=O)(=O)c5ccc(NC(CCN6CCC(C(=O)OCCCP(=O)(O)O)CC6)CSc6ccccc6)c(S(=O)(=O)C(F)(F)F)c5)cc4)CC3)c2)c(-c2ccc(Cl)cc2)n1C(C)C: the IC50 was more than 1000 nM (curve of first compound, second compound 0.1 µM); more than 1000 nM (curve of first compound, second compound 0.316 µM); more than 1000 nM (curve of first compound, second compound 1 µM); more than 1000 nM (curve of first compound, second compound 3.16 µM); more than 1000 nM (curve of first compound, second compound 10 µM). Also, the viability, T/C by setting is: (second compound 0.1 µM, first compound 0.00316 µM) 114%; (second compound 0.1 µM, first compound 0.01 µM) 100%; (second compound 0.1 µM, first compound 0.0316 µM) 103%; (second compound 0.1 µM, first compound 0.1 µM) 90.6%; (second compound 0.1 µM, first compound 0.316 µM) 96.9%; (second compound 0.1 µM, first compound 1 µM) 88.1%. In addition, the viability, T/C by setting is: (second compound 0.316 µM, first compound 0.00316 µM) 116%; (second compound 0.316 µM, first compound 0.01 µM) 90.5%; (second compound 0.316 µM, first compound 0.0316 µM) 90.7%; (second compound 0.316 µM, first compound 0.1 µM) 84.7%; (second compound 0.316 µM, first compound 0.316 µM) 103%; (second compound 0.316 µM, first compound 1 µM) 86%. The viability, T/C reads like this: (second compound 1 µM, first compound 0.00316 µM) 98.7%; (second compound 1 µM, first compound 0.01 µM) 97%; (second compound 1 µM, first compound 0.0316 µM) 90.4%; (second compound 1 µM, first compound 0.1 µM) 82%; (second compound 1 µM, first compound 0.316 µM) 89.3%; (second compound 1 µM, first compound 1 µM) 90.9%. Besides, the viability, T/C runs as follows: (second compound 3.16 µM, first compound 0.00316 µM) 93.2%; (second compound 3.16 µM, first compound 0.01 µM) 94.2%; (second compound 3.16 µM, first compound 0.0316 µM) 81%; (second compound 3.16 µM, first compound 0.1 µM) 81.5%; (second compound 3.16 µM, first compound 0.316 µM) 71.4%; (second compound 3.16 µM, first compound 1 µM) 83.3%. The viability, T/C reads like this: (second compound 10 µM, first compound 0.00316 µM) 93.2%; (second compound 10 µM, first compound 0.01 µM) 94.7%; (second compound 10 µM, first compound 0.0316 µM) 80.7%; (second compound 10 µM, first compound 0.1 µM) 79.5%; (second compound 10 µM, first compound 0.316 µM) 77.4%; (second compound 10 µM, first compound 1 µM) 76.3%.

On to `Cc1nc(N2CCC3(CC2)COC(C)C3N)c(CO)nc1Sc1ccnc(N)c1Cl` (centres undefined), for which the viability, T/C (compound 0.00949 µM) was 96.6% and 103% and 111%; the viability, T/C (compound 0.03 µM) is 96.7% and 113% and 106%; the viability, T/C (compound 0.0949 µM) was 96.6% and 108% and 102%; the viability, T/C (compound 0.3 µM) was 99.3% and 106% and 105%; the viability, T/C (compound 0.949 µM) is 91.7% (2×) and 88.5%; the viability, T/C (compound 3 µM) was 67.1% and 75.8% and 68.5%. Besides, the IC50 (curve of compound) was more than 3000 nM.

Take `O=C(c1ccc(F)c(F)c1Nc1ccc(I)cc1F)N1CC(O)([C@@H]2CCCCN2)C1`: the viability, T/C is 97.1% and 106% and 100% (compound 0.00316 µM); 99.7% and 107% and 102% (compound 0.01 µM); 83.1% and 103% and 102% (compound 0.0316 µM); 92.8% and 102% and 122% (compound 0.1 µM); 73.6% and 74.8% and 78.3% (compound 0.316 µM); 19.4% and 25.9% and 26% (compound 1 µM). In addition, the IC50 (curve of compound) was 522 nM and 567 nM and 590 nM.
